Measured values as given in ChEMBL document CHEMBL1201862, “PubChem BioAssay data set” (2004).
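Cultured in 96-well plates, cells were exposed to test compound for 48 hours across five concentrations. At the GI50, growth is halved.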 Activity calls are given as the source filed them. Rule as the data show it: active = GI50 up to about 1.1 µM and inactive = higher.

How the values were obtained:
Assay in all cases: NCI anticancer screen, dose series, 48 h
A498 = test system: A498
A549 = test system: A549
DU-145 = test system: DU-145
HCT-116 = test system: HCT-116
HOP-92 = test system: HOP-92
K562 = test system: K562
LOX IMVI = test system: LOX IMVI
M14 = test system: M14
MDA-MB-435 = test system: MDA-MB-435
MOLT-4 = test system: MOLT-4
NCI-H226 = test system: NCI-H226
NCI-H23 = test system: NCI-H23
OVCAR-4 = test system: OVCAR-4
RPMI-8226 = test system: RPMI-8226
SF-268 = test system: SF-268
SF-539 = test system: SF-539
SK-MEL-2 = test system: SK-MEL-2
SNB-75 = test system: SNB-75
TK-10 = test system: TK-10
UACC-257 = test system: UACC-257

Measured: GI50

O=C1N/C(=N/N=C/c2c[nH]c3ccccc23)N/C1=C\c1cccs1
inactive: A498 16.2 µM | A549 76.6 µM | DU-145 > 100 µM | HCT-116 53.8 µM | HOP-92 49 µM | K562 > 100 µM | LOX IMVI 56.9 µM | M14 75.3 µM | MDA-MB-435 43.3 µM | MOLT-4 > 100 µM | NCI-H226 > 100 µM | NCI-H23 > 100 µM | OVCAR-4 > 100 µM | RPMI-8226 40.4 µM | SF-268 > 100 µM | SF-539 > 100 µM | SK-MEL-2 45.5 µM | SNB-75 > 100 µM | TK-10 > 100 µM | UACC-257 77.3 µM

Cn1c2ccccc2c2c3c(c4c5ccccc5n(C)c4c21)C(=O)N(c1ccccc1)C3=O
inactive: A498 > 100 µM | A549 > 100 µM | DU-145 > 100 µM | HCT-116 > 100 µM | HOP-92 > 100 µM | K562 > 100 µM | LOX IMVI > 100 µM | M14 > 100 µM | MDA-MB-435 > 100 µM | MOLT-4 > 100 µM | NCI-H226 > 100 µM | NCI-H23 > 100 µM | OVCAR-4 > 100 µM | RPMI-8226 > 100 µM | SF-539 > 100 µM | SK-MEL-2 > 100 µM | SNB-75 > 100 µM | TK-10 > 100 µM | UACC-257 > 100 µM

CCCCCCc1cc(C=O)sc1-c1ccc(-c2sc(-c3ccc(-c4ccc(-c5cc(CCCCCC)c(-c6ccc(-c7sc(C=O)cc7CCCCCC)s6)s5)s4)s3)cc2CCCCCC)s1
inactive: A498 > 100 µM | A549 > 100 µM | DU-145 > 100 µM | HCT-116 > 100 µM | HOP-92 > 100 µM | K562 > 100 µM | LOX IMVI > 100 µM | M14 > 100 µM | MDA-MB-435 > 100 µM | MOLT-4 > 100 µM | NCI-H226 28.4 µM | NCI-H23 > 100 µM | OVCAR-4 > 100 µM | RPMI-8226 > 100 µM | SF-268 85.9 µM | SF-539 > 100 µM | SK-MEL-2 > 100 µM | TK-10 > 100 µM | UACC-257 > 100 µM

C=C1C(=O)OC2CC(C)C3(O)CCC(=O)C3(C)CC12 (stereo not drawn)
inactive: A498 25.8 µM | A549 52.4 µM | DU-145 31.9 µM | HCT-116 31.1 µM | HOP-92 57.1 µM | LOX IMVI 31.8 µM | M14 22 µM | MDA-MB-435 39.7 µM | MOLT-4 22.2 µM | NCI-H226 64 µM | NCI-H23 31.7 µM | OVCAR-4 18.7 µM | RPMI-8226 14.8 µM | SF-268 18.5 µM | SF-539 16.1 µM | SK-MEL-2 22.2 µM | SNB-75 20.2 µM | TK-10 26.7 µM | UACC-257 43.7 µM

Cn1c2ccc([N+](=O)[O-])cc2c(=O)c2c(O)cc(O)cc21
inactive: A498 > 100 µM | A549 29.4 µM | DU-145 47.8 µM | HOP-92 32.7 µM | K562 > 100 µM | LOX IMVI 37.1 µM | M14 60.4 µM | MDA-MB-435 > 100 µM | MOLT-4 45.2 µM | NCI-H226 53.2 µM | OVCAR-4 31.2 µM | RPMI-8226 > 100 µM | SF-268 19.7 µM | SF-539 24.3 µM | SK-MEL-2 > 10 µM | SNB-75 4.15 µM | TK-10 66.2 µM | UACC-257 > 100 µM

CCOc1ccc(/N=N/C2C(=O)N(C(=O)CC(=O)Nc3ccc(Cl)cc3)N=C2C)cc1 (stereo not drawn)
inactive: A498 > 100 µM | A549 > 100 µM | DU-145 > 100 µM | HCT-116 > 100 µM | HOP-92 > 100 µM | LOX IMVI > 100 µM | M14 > 100 µM | MDA-MB-435 > 100 µM | NCI-H226 > 100 µM | NCI-H23 > 100 µM | OVCAR-4 > 100 µM | RPMI-8226 > 100 µM | SF-268 > 100 µM | SF-539 > 100 µM | SK-MEL-2 > 100 µM | SNB-75 18.4 µM | TK-10 > 100 µM

O=C(O)c1cccc(NC(C(=O)c2ccccc2)c2ccccc2)c1 (stereo not drawn)
inactive: A498 > 100 µM | A549 > 100 µM | DU-145 > 100 µM | HCT-116 > 100 µM | HOP-92 34 µM | K562 > 100 µM | LOX IMVI > 100 µM | M14 > 100 µM | MDA-MB-435 > 100 µM | MOLT-4 > 100 µM | NCI-H23 > 100 µM | RPMI-8226 > 100 µM | SF-268 > 100 µM | SF-539 > 100 µM | SK-MEL-2 > 100 µM | TK-10 > 100 µM
